Molecular target: T1, human PTH1 receptor (Homo sapiens, UniProt Q03431)
T1 sequence (Q03431 27-593): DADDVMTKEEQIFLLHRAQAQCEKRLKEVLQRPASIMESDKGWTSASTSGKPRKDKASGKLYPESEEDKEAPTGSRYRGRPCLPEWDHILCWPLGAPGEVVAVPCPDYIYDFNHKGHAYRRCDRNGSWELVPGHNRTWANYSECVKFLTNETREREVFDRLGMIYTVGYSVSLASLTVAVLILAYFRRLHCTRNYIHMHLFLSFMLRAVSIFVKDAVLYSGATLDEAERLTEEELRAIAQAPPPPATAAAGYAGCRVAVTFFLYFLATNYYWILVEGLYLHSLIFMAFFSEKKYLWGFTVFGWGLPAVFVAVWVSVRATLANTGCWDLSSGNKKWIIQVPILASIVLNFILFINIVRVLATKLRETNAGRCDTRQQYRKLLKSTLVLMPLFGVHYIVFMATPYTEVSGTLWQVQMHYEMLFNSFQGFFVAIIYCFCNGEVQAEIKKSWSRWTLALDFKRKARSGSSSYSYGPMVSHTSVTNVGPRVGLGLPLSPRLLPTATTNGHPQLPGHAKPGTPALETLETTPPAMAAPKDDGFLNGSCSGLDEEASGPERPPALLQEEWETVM
Test: In vitro cAMP signal activity in HKRK-B7 cells (LLC-PK1 cells overexpressing the human PTH1 receptor)
Type: cell-based
Settings: HKRK-B7 cells; compound at 1×10^−3 M; […]; 0.1 µM

| SMILES | cAMP production activity (%) |
| --- | --- |
| Cc1cc(N(C)C(=O)OCCN(C)C)ccc1/C=C/S(=O)(=O)N1CCC2(CC1)N=C(c1cccc(OC(F)(F)F)c1)NC2=O [Compound 466, Methyl-(3-methyl-4-{(E)-2-[4-oxo-2-(3-trifluoromethoxy-phenyl)-1,3,8-triaza-spiro[4.5]dec-1-ene-8-sulfonyl]-vinyl}-phenyl)-carbamic acid 2-dimethylamino-ethyl ester] | 23 |

Same assay, conditions: HKRK-B7 cells; compound at 1×10^−3 M; cAMP produced as percentage of that produced by hPTH(1-34) at 100 nM

| cAMP production activity (%) | SMILES |
| --- | --- |
| 44 | Cc1cc(C(=O)N2CC3(COC3)C2)cc(C)c1/C=C/S(=O)(=O)N1CCC2(CC1)N=C(c1ccc(F)c(C(F)(F)F)c1)NC2=O [Compound 967, 8-{(E)-2-[2,6-Dimethyl-4-(2-oxa-6-aza-spiro[3.3]heptane-6-carbonyl)-phenyl]-ethenesulfonyl}-2-(4-fluoro-3-trifluoromethyl-phenyl)-1,3,8-triaza-spiro[4.5]dec-1-en-4-one] |
| 138 | Cc1cc(N(C)C(N)=O)cc(C)c1/C=C/S(=O)(=O)N1CCC2(CC1)N=C(c1cccc(SC(F)(F)F)c1)NC2=O [Compound 1305, 1-(3,5-dimethyl-4-{(E)-2-[4-oxo-2-(3-trifluoromethylsulfanyl-phenyl)-1,3,8-triaza-spiro[4.5]dec-1-ene-8-sulfonyl]-vinyl}-phenyl)-1-methyl-urea] |
| 78 | Cc1cc(CNC(N)=O)cc(C)c1CCS(=O)(=O)N1CCC2(CC1)N=C(C1CCC(C)CC1)NC2=O (stereo not shown) [Compound 1314, (3,5-dimethyl-4-{2-[2-(4-methyl-cyclohexyl)-4-oxo-1,3,8-triaza-spiro[4.5]dec-1-ene-8-sulfonyl]-ethyl}-benzyl)-urea] |
| 9.3 | Cc1cc2ccc1CCS(=O)(=O)N1CCC3(CC1)N=C(NC3=O)c1cc(cc(C(F)(F)F)c1)OCCc1cn(nn1)CCCN(C)C2=O [Compound 1442] |
| 47 | Cc1cc2ccc1CCS(=O)(=O)N1CCC3(CC1)N=C(NC3=O)c1cc(cc(C(F)(F)F)c1)OCC/C=C\CCCCCN(C)C2=O [Compound 1414] |
| 85 | Cc1cc(C(=O)N2CCC(O)(CF)CC2)cc(C)c1/C=C/S(=O)(=O)N1CCC2(CC1)N=C(c1ccc(OCC(F)(F)F)c(Cl)c1)NC2=O [Compound 1246, 2-[3-chloro-4-(2,2,2-trifluoro-ethoxy)-phenyl]-8-{(E)-2-[4-(4-fluoromethyl-4-hydroxy-piperidine-1-carbonyl)-2,6-dimethyl-phenyl]-ethenesulfonyl}-1,3,8-triaza-spiro[4.5]dec-1-en-4-one] |
| 83 | Cc1cc(C(=O)N2CCC(O)(CO)CC2)cc(C)c1/C=C/S(=O)(=O)N1CCC2(CC1)N=C(c1ccc(F)c(C(F)(F)F)c1)NC2=O [Compound 971, 2-(4-fluoro-3-trifluoromethyl-phenyl)-8-{(E)-2-[4-(4-hydroxy-4-hydroxymethyl-piperidine-1-carbonyl)-2,6-dimethyl-phenyl]-ethenesulfonyl}-1,3,8-triaza-spiro[4.5]dec-1-en-4-one] |
| 102 | Cc1cc(N2C(=O)CNC2=O)ccc1CCS(=O)(=O)N1CCC2(CC1)N=C([C@H]1CC[C@H](CC=C(F)F)CC1)NC2=O [Compound 946, 3-[4-(2-{2-[4-(3,3-difluoro-allyl)-cyclohexyl]-4-oxo-1,3,8-triaza-spiro[4.5]dec-1-ene-8-sulfonyl}-ethyl)-3-methyl-phenyl]-imidazolidine-2,4-dione] |

The next lines start with the compound.

| SMILES | cAMP production activity (%) |
| --- | --- |
| Cc1cc(NS(N)(=O)=O)ccc1CCS(=O)(=O)N1CCC2(CC1)N=C(c1cccc(OC(F)(F)F)c1)NC2=O [Compound 874, N-(3-methyl-4-{2-[4-oxo-2-(3-trifluoromethoxy-phenyl)-1,3,8-triaza-spiro[4.5]dec-1-ene-8-sulfonyl]-ethyl}-phenyl)-sulfamide] | 61 |
| O=C1NC(C2CCCCC2)=NC12CCN(S(=O)(=O)/C=C/c1cccc3c1ccn3CCCCO)CC2 [Compound 478, 2-cyclohexyl-8-{(E)-2-[1-(4-hydroxy-butyl)-1H-indol-4-yl]-ethenesulfonyl}-1,3,8-triaza-spiro[4.5]dec-1-en-4-one] | 33 |
| CCCCCCCCCC1=NC2(CCN(S(=O)(=O)/C=C/c3ccc(N4C(=O)COCC4=O)cc3C)CC2)C(=O)N1 [Compound 538, 4-{3-methyl-4-[(E)-2-(2-nonyl-4-oxo-1,3,8-triaza-spiro[4.5]dec-1-ene-8-sulfonyl)-vinyl]-phenyl}-morpholine-3,5-dione] | 133 |
| Cc1cc(N(C)C(N)=O)cc(C)c1/C=C/S(=O)(=O)N1CCC2(CC1)N=C(C1CCC(C(F)(F)F)CC1)NC2=O (stereo not shown) [Compound 471, 1-(3,5-Dimethyl-4-{(E)-2-[4-oxo-2-(4-trifluoromethyl-cyclohexyl)-1,3,8-triaza-spiro[4.5]dec-1-ene-8-sulfonyl]-vinyl}-phenyl)-1-methyl-urea] | 111 |
| CC(C)N(CCNC(=O)Cc1ccc(/C=C/S(=O)(=O)N2CCC3(CC2)N=C(C2CCCCC2)NC3=O)cc1)C(C)C [Compound 571, 2-{4-[(E)-2-(2-cyclohexyl-4-oxo-1,3,8-triaza-spiro[4.5]dec-1-ene-8-sulfonyl)-vinyl]-phenyl}-N-(2-diisopropylamino-ethyl)-acetamide] | 39 |
| Cc1cc(C(=O)N(C)C)ccc1CCS(=O)(=O)N1CCC2(CC1)N=C(c1cccc(C(F)(F)F)c1)NC2=O [Compound 86, 3,N,N-trimethyl-4-{2-[4-oxo-2-(3-trifluoromethyl-phenyl)-1,3,8-triaza-spiro[4.5]dec-1-ene-8-sulfonyl]-ethyl}-benzamide] | 66 |
| CN(C)C(=O)n1ccc2c(CCS(=O)(=O)N3CCC4(CC3)N=C(C3CCCCC3)NC4=O)cccc21 [Compound 310, 4-[2-(2-cyclohexyl-4-oxo-1,3,8-triaza-spiro[4.5]dec-1-ene-8-sulfonyl)-ethyl]-indole-1-carboxylic acid dimethylamide] | 76 |
| Cc1cc(N2C(=O)CNC2=O)cc(C)c1CCS(=O)(=O)N1CCC2(CC1)N=C(C1CCC(C)CC1)NC2=O (stereo not shown) [Compound 883, 3-(3,5-dimethyl-4-{2-[2-(4-methyl-cyclohexyl)-4-oxo-1,3,8-triaza-spiro[4.5]dec-1-ene-8-sulfonyl]-ethyl}-phenyl)-imidazolidine-2,4-dione] | 56 |
| Cc1cc(CN2C(=O)CCC2=O)cc(C)c1/C=C/S(=O)(=O)N1CCC2(CC1)N=C(C1CCC(CCC(F)(F)F)CC1)NC2=O (stereo not shown) [Compound 557, 1-[3,5-dimethyl-4-((E)-2-{4-oxo-2-[4-(3,3,3-trifluoro-propyl)-cyclohexyl]-1,3,8-triaza-spiro[4.5]dec-1-ene-8-sulfonyl}-vinyl)-benzyl]-pyrrolidine-2,5-dione] | 50 |
| COc1cccc(CCS(=O)(=O)N2CCC3(CC2)N=C([C@H]2CC[C@H](C)CC2)NC3=O)c1C [Compound 668, 8-[2-(3-Methoxy-2-methyl-phenyl)-ethanesulfonyl]-2-(4-methyl-cyclohexyl)-1,3,8-triaza-spiro[4.5]dec-1-en-4-one] | 40 |
| CCCCCCCCCC1=NC2(CCN(S(=O)(=O)/C=C/c3c(C)cc(OCCC(O)CO)cc3C)CC2)C(=O)N1 (stereo not shown) [Compound 627, 8-{(E)-2-[4-(3,4-Dihydroxy-butoxy)-2,6-dimethyl-phenyl]-ethenesulfonyl}-2-nonyl-1,3,8-triaza-spiro[4.5]dec-1-en-4-one] | 5.3 |
| O=C1NC(C2CCCCC2)=NC12CCN(S(=O)(=O)CCc1cccc3cc[nH]c13)CC2 [Compound 835, 2-Cyclohexyl-8-[2-(1H-indol-7-yl)-ethanesulfonyl]-1,3,8-triaza-spiro[4.5]dec-1-en-4-one] | 50 |
| Cc1cc(N2C(=O)CNC2=O)cc(C)c1/C=C/S(=O)(=O)N1CCC2(CC1)N=C(c1cccc(OC(F)(F)F)c1)NC2=O [Compound 635, 3-(3,5-Dimethyl-4-{(E)-2-[4-oxo-2-(3-trifluoromethoxy-phenyl)-1,3,8-triaza-spiro[4.5]dec-1-ene-8-sulfonyl]-vinyl}-phenyl)-imidazolidine-2,4-dione] | 93 |
| O=C1NC(c2ccc(Cl)cc2Cl)=NC12CCN(S(=O)(=O)c1cccc(Cl)c1)CC2 [Compound 50, 8-(3-chloro-benzenesulfonyl)-2-(2,4-dichloro-phenyl)-1,3,8-triaza-spiro[4.5]dec-1-en-4-one] | 26 |
| Cc1cc(C(=O)N2C[C@H](NC(C)C)[C@@H](O)C2)cc(C)c1/C=C/S(=O)(=O)N1CCC2(CC1)N=C(c1cccc(OC(F)(F)F)c1)NC2=O [Compound 406, 8-{(E)-2-[4-((3S,4S)-3-hydroxy-4-isopropylamino-pyrrolidine-1-carbonyl)-2,6-dimethyl-phenyl]-ethenesulfonyl}-2-(3-trifluoromethoxy-phenyl)-1,3,8-triaza-spiro[4.5]dec-1-en-4-one] | 100 |

Same assay, conditions: HKRK-B7 cells; compound at 1×10^−3 M; cAMP produced as percentage of that produced by hPTH(1-34) at 100 nM; 0.1 µM

| cAMP production activity (%) | SMILES |
| --- | --- |
| 38 | Cc1cc2ccc1CCS(=O)(=O)N1CCC3(CC1)N=C(NC3=O)c1cc(cc(C(F)(F)F)c1)OCCC=CCCCCN(C)C2=O [Compound 1411] |

Source: patent US9169254B2, “Spiroimidazolone derivative” (Chugai Seiyaku Kabushiki Kaisha, priority 2009, dated 2015)
